# In US9080173B2, “Methods and compositions for RNAi-based cancer treatment” (SILENSEED LTD., priority 2012, dated 2015):
# d = 2'-deoxy (DNA); r = 2'-OH (RNA)
# How the values were obtained:
# Panc1-LUC tumors = experiment: Survival of SCIDbg mice with s.c. Panc1-LUC tumors; assay type: in vivo; conditions: 4 μg siG12D in 200 μl PBS i.p. weekly; over 41 days
# Description: Mice were injected s.c. with 10×10^6 Panc1-LUC tumor cells in a total volume of 100 μl PBS, or into the tail of the pancreas with 10^6 cells in a total volume of 30 μl PBS.
# In another experiment, 30 SCIDbg mice were injected s.c. with Panc1-LUC tumor cells, and were divided into 4 groups: (a) siG12D-DDD (12 μg siG12D per DDD)—2 DDD placed in each mouse; (b) empty DDD—2 DDD placed in each mouse; (c) 4 μg siG12D in 200 μl PBS injected intraperitoneally (i.p.) on a weekly basis; and (d) untreated. Tumor development was measured by caliper and Luciferase measurements. […] The difference in survival was statistically significant (p<0.05 compared to the other 3 groups).
# Panc1 cells = experiment: Methylene Blue viability test of transfected Panc1 cells, alone and with Gemzar; assay type: cell-based; conditions: 72h post-transfection; 1 hr of treatment with 10 μM Gemzar
# Description: FIG. 7. Gemzar® enhances siG12D-DDD effect. Panc1 cells were transfected using Lipofectamine™ with unmodified and modified siG12D and a scrambled (non-targeting) siRNA control molecule or were mock transfected (no siRNA). Cell viability was assessed 72 hrs post-transfection by the Methylene Blue (MB) test. Additional groups were transfected as described above, followed by 1 hr of treatment with 10 μM Gemzar®. The numbers 1-4 in the last column relate to the percent of inhibition of cellular growth, wherein the inhibition seen with the unmodified siRNA was assigned the value of 100%. 4, 3, 2, and 1 refer respectively to 75-100%, 50-75%, 25-50%, and 0-25% of the inhibition seen with the unmodified siRNA.
# Experimental procedure: Panc1 cells were transfected using Lipofectamine™ with unmodified and modified siG12D and a scrambled (non-targeting) siRNA control molecule or were mock transfected (no siRNA). Cell viability was assessed 72 hrs post-transfection by the Methylene Blue (MB) test. Additional groups were transfected as described above, followed by 1 hr of treatment with 10 μM Gemzar®. At the exemplary time point of 72h, Gemzar® enhanced the effect of siG12D by nearly 10%. […] Other time points, for example 48h, 72h, 96h and 120h, may be utilized in additional studies.
substance,measurement,setting,value
"sense GUUGGAGCUGAUGGCGUAGdTdT (SEQ ID No: 41), antisense CUACGCCAUCAGCUCCAACdTdT (SEQ ID No: 42) (sense GUUGGAGCUGAUGGCGUAGTT; antisense CUACGCCAUCAGCUCCAACTT; sugars from the 5' end r19 d2, backbone not given here) [siG12D, unmodified siRNA against G12D-mutated K-ras]",survival rate,Panc1-LUC tumors,33.33%
same,enhancement of the effect of siG12D on cell viability by Gemzar,Panc1 cells,~10%
